In patent US20050130252A1, “Stabilized susceptibility tests of aerobic pathogens” (Wyeth Holdings Corporation, priority 2003, published 2005):
≈ marks a conversion by molar mass, not a printed value. Where two headings read alike, the source gives them in different places.

Columns and labels:
S. aureus ATCC 25923 = test: Broth microdilution MIC; type: cell-based, Staphylococcus aureus; conditions: Staphylococcus aureus, ATCC25923, read-out: Minimal Inhibitory Concentration, S. aureus ATCC 25923
Experimental: The process for preparing susceptibility test medium are the following steps: • a. Preparing Mueller Hinton Broth II medium by adding 22 grams powdered media to 1.0 liter distilled water; • b. Autoclaving (121° C., 15 psi, 15 minutes) and cooling the medium; • c. Adding Oxyrase® up to about 10% final volume and keeping at 35-37° C. in an incubator for 30 minutes; • d. Adding about 50 μL to each well of a 96 well microtiter plate; • e. Weighing drug and adding broth to drug to bring up to about (standard 128 μg/ml); • f. Adding 50 μL of the drug to the first column of the titer plate; • g. Diluting by two-fold serial diluting across or down the plate. • h. Preparing a Prompt™ inoculum at 10^8 CFU/ml; • i. Diluting inoculum 1:100 in the broth at […] in 9.9 ml (1:100) is 10^6 colony forming units (CFU) forming the adjusted inoculum; • j. Adding 50 μL of the adjusted inoculum to the wells of the microtiter plate; • k. Incubating the plates at 35-37° C. for 18-22 hours; and • l. Reading, with the unaided eye, the MIC.
(§1) The in vitro activities of tigecycline and control antibiotics were determined by the broth microdilution method as recommended by the NCCLS. (National Committee for Clinical Laboratory Standards, 2003. Methods for Dilution Antimicrobial Susceptibility Tests for Bacteria That Grow Aerobically; Approved Standards: M7-A6, Sixth ed, vol. 23., National Committee for Clinical Laboratory Standards Wayne, Pa.) was used for the standard procedures. MBH with 5% lysed horse blood was used for testing S. pneumoniae and Haemophilus Test Medium was used for testing H. influenzae. Oxyrase® (Oxyrase Inc, Mansfield, Ohio) was used according to the manufacturer's instructions by adding 1 ml of Oxyrase® to 50 ml of media. Media age studies were performed by preparing MHB in multiple flasks, then storing the media under various conditions. MICs were usually performed in duplicate on each day of testing. Storage under anaerobic conditions was conducted in an anaerobic chamber (MACS MG 1000, Don Whitley Scientific LTD). The pH of the media was determined by pH meter (Corning 430). A comparison of the in vitro activity of tigecycline by agar and broth dilution methodolgies with and without Oxyrase® against clinical isolates is shown in Table 1.

[1] = test system: Candida albicans GC3066 ATCC Control; test: Agar dilution in vitro activity; type: cell-based; conditions: C. albicans GC3066 ATCC Control
Experimental: as §1, with “Oxyrase® (Oxyrase Inc, Mansfield, Ohio) was used according to the manufacturer's instructions by adding 1 ml of Oxyrase® to 50 ml of media.” left out

[2] = test system: Enterococcus faecalis GC2242 Vancomycin-Resistant; test: Agar dilution in vitro activity; type: cell-based; conditions: E. faecalis GC2242 Vancomycin-Resistant
Experimental: as §1, with “Oxyrase® (Oxyrase Inc, Mansfield, Ohio) was used according to the manufacturer's instructions by adding 1 ml of Oxyrase® to 50 ml of media.” left out

[3] = test system: Enterococcus faecalis GC4555 ATCC Control; test: Agar dilution in vitro activity; type: cell-based; conditions: E. faecalis GC4555 ATCC Control
Experimental: as §1, with “Oxyrase® (Oxyrase Inc, Mansfield, Ohio) was used according to the manufacturer's instructions by adding 1 ml of Oxyrase® to 50 ml of media.” left out

[4] = test system: Staphylococcus aureus GC1131 Clinical isolate; test: Agar dilution in vitro activity; type: cell-based; conditions: S. aureus GC1131
Experimental: as §1, with “Oxyrase® (Oxyrase Inc, Mansfield, Ohio) was used according to the manufacturer's instructions by adding 1 ml of Oxyrase® to 50 ml of media.” left out

[5] = test system: Staphylococcus aureus GC2216 ATCC Control; test: Agar dilution in vitro activity; type: cell-based; conditions: S. aureus GC2216 ATCC Control
Experimental: as §1, with “Oxyrase® (Oxyrase Inc, Mansfield, Ohio) was used according to the manufacturer's instructions by adding 1 ml of Oxyrase® to 50 ml of media.” left out

[6] = test system: Staphylococcus aureus GC6466 Clinical - tet(M); test: Agar dilution in vitro activity; type: cell-based; conditions: S. aureus GC6466 tet(M)
Experimental: as §1, with “Oxyrase® (Oxyrase Inc, Mansfield, Ohio) was used according to the manufacturer's instructions by adding 1 ml of Oxyrase® to 50 ml of media.” left out

[7] = test system: Staphylococcus aureus GC6467 Clinical - tet(M) + (K); test: Agar dilution in vitro activity; type: cell-based; conditions: S. aureus GC6467 tet(M) + (K)
Experimental: as §1, with “Oxyrase® (Oxyrase Inc, Mansfield, Ohio) was used according to the manufacturer's instructions by adding 1 ml of Oxyrase® to 50 ml of media.” left out

ATCC reference strains = test: Broth microdilution MIC, reference strains taken together; type: cell-based
Experimental: The MICs for TGC were determined under various conditions by broth microdilution using NCCLS procedures. The MHB was stored at 2° C., room temperature, anaerobically and with the addition of Oxyrase® to determine the effect of various conditions. Time Kill kinetics was used to confirm MIC differences observed with the broth microdilution for aged and fresh media results.
as §1
To determine the effect of media age on the in vitro activity of tigecycline, MHB was prepared and stored at room temperature or 2° C. for 28 days. […] The aging of the media was slowed somewhat in the media stored at […] compared to the media stored at room temperature.

SMILES: CN(C)c1cc(NC(=O)CNC(C)(C)C)c(O)c2c1C[C@H]1C[C@H]3[C@H](N(C)C)C(O)=C(C(N)=O)C(=O)[C@@]3(O)C(O)=C1C2=O [Tigecycline, tigecycline]
- MIC (S. aureus ATCC 25923; 2% Oxyrase): 0.06 mg/L (≈ 0.102 µM)
- MIC (S. aureus ATCC 25923; MHB II + 0.05% Sodium Pyruvate): 0.25 mg/L
- MIC (S. aureus ATCC 25923; No Oxyrase): 0.25 mg/L (≈ 0.427 µM)
- In Vitro Activity of Tigecycline ([1]; Oxyrase (10%)): >16
- In Vitro Activity of Tigecycline ([1]; no Oxyrase): >16
- In Vitro Activity of Tigecycline ([2]; Oxyrase (10%)): 0.12
- In Vitro Activity of Tigecycline ([2]; no Oxyrase): 0.12
- In Vitro Activity of Tigecycline ([3]; Oxyrase (10%)): 0.12
- In Vitro Activity of Tigecycline ([3]; no Oxyrase): 0.12
- In Vitro Activity of Tigecycline ([4]; Oxyrase (10%)): 0.25
- In Vitro Activity of Tigecycline ([4]; no Oxyrase): 0.25
- In Vitro Activity of Tigecycline ([5]; Oxyrase (10%)): 0.25
- In Vitro Activity of Tigecycline ([5]; no Oxyrase): 0.5
- In Vitro Activity of Tigecycline ([6]; Oxyrase (10%)): 0.12
- In Vitro Activity of Tigecycline ([6]; no Oxyrase): 0.25
- In Vitro Activity of Tigecycline ([7]; Oxyrase (10%)): 0.5
- In Vitro Activity of Tigecycline ([7]; no Oxyrase): 1
- Increase in the MICs over the four week period of media storage (ATCC reference strains; ATCC reference organisms, MHB stored 28 days, Table 4): 3 to 4 dilution
- MICs in aged media supplemented with Oxyrase compared with fresh media (ATCC reference strains; Table 3): nearly identical to those determined in fresh media
- MICs in fresh media supplemented with Oxyrase compared with unsupplemented fresh media (ATCC reference strains; Table 3): not significantly different
- MICs in commercially prepared media and media aged 2 weeks at RT under room air higher than in freshly prepared media (ATCC reference strains; Table 6): 1-4 dilutions
- MICs in media stored under anaerobic conditions compared with fresh media (ATCC reference strains; Table 6): nearly identical to the results obtained in fresh media
- More active in freshly prepared media than in commercially prepared and aged media (ATCC reference strains; reference strains): 2 to 3 dilution
- MIC (ATCC reference strains; reference strains, addition of Oxyrase): 0.06 to 0.25 mg/L (≈ 0.102 to 0.427 µM)
- MIC (ATCC reference strains; reference strains, aged medium stored under anaerobic conditions prior to testing): 0.03 to 0.12 mg/L (≈ 0.0512 to 0.205 µM)
- MIC (ATCC reference strains; reference strains, commercially prepared and aged (7 day old) media from powder): 0.12 to 0.25 mg/L (≈ 0.205 to 0.427 µM)
- MIC (ATCC reference strains; reference strains, freshly prepared media): 0.03 to 0.12 mg/L (≈ 0.0512 to 0.205 µM)
